According to patent EP2939983A1, “Titanium dioxide-catalysed oxidation method” (Sistiana Inversiones S.L., priority 2014, dated 2015):

Assays:
[1] = 5% H2O2, 10g/L TiO2 (aeroxide P90), pH=3 (HCl), 0.025 mM Rhodamine B; reaction order 0.66
[2] = Rhodamine B degradation kinetics with TiO2 catalyst, H2O2 and acid in the absence of light
From the text: The walls of a beaker (Ǿ = 10 cm) were covered with aluminum foil to prevent any light exposure to the inside. A magnetic stirrer was introduced in a smaller beaker (Ǿ = 6.5 cm), which was then covered on the top with parafilm and a small hole was punched thereon. The smaller beaker was introduced concentrically into the larger one. To immobilize the inner beaker, a foam was placed between the walls of the two vessels. A cover of the same foam (Ǿ = 10 cm, 1.5 cm thick) was placed on the top of the larger beaker. In the cover, a hole (Ǿ = 0.5 cm) close to the inside wall of the inner beaker facilitated sample collection in the vortex formed during the agitation of the reaction mixture. A second hole situated on the opposite side of the first one was punched in order to facilitate pH measurements.
The catalytic reactor was placed on the stirrer (VMS-C4, VWR) at around 750 rpm. Then, the inner beaker was filled with the help of a funnel with the required amount of TiO2. Immediately afterwards, the appropriate amount of 9.8 M H2O2 and deionised water, in each case, for a total volume of 20 mL, was introduced. The mixture was stirred for 1 minute, and 20 mL of the required concentration of Rhodamine B were then added. In the cases where an acid was employed, the corresponding amount of acid to achieve a particular pH was introduced in the reaction mixture before the addition of Rhodamine B. After 3 minutes stirring, an aliquot of 1 mL was taken through a plastic Pasteur pipette and was introduced in an Eppendorf tube (1.5 mL). The sample was centrifugated (Mikro 120, Hettich Zentrifugen) at 14000 rpm for 1 minute. The supernatant was centrifugated again under the same conditions and the remaining supernatant was placed in a 1.5 mL cuvette for analysis in a spectrophotometer (Du 730, Beckman Coulter). […] Finally, the TiO2 and the liquid were reintroduced into the inner beaker. The procedure, starting with the 1 mL aliquot extraction, was repeated (at least) every 3 min for a maximum of 2 h. The experiment was repeated 4 times for every imposed condition.
Linear regressions were conducted with the obtained data. […] The kinetic constant of the reaction was the parameter used to compare the oxidative capacity of the different oxidation conditions in the method of the invention.

[3] = in water; cited from earlier work
[4] = 0.025 mM Rhodamine B, 30g/L of TiO2 (aeroxide P90), 5% H2O2 solution
[5] = 0.025 mM Rhodamine B, 30g/L of TiO2 (aeroxide P90), 5% H2O2 solution, pH 2.0
[6] = 0.025 mM Rhodamine B, 30g/L of TiO2 (aeroxide P90), 5% H2O2 solution, pH 2.0, absence of light
[7] = 0.050 mM Rhodamine B, 10g/L of TiO2 (aeroxide P90), 5% H2O2 solution, pH of 2

O=O [oxygen]
kinetic constant greater than that of the reaction not supplied with oxygen [1]: about 15%

O=S(=O)(O)O [Sulfuric, sulfuric acid]
Rate constants for degradation kinetics (k554/min^-1), pH 1.5 [2, 4]: 0.2360±0.0430 min^-1 | Rate constants for degradation kinetics (k554/min^-1), pH 2.0 [2, 5]: 0.1124±0.0112 min^-1 | Rate constants for degradation kinetics (k544/min^-1) [2, 6]: 0.1124 ± 0.0112 min⁻¹ | Rate constants for degradation kinetics (k544/min^-1) [2, 7]: 0.0293 ± 0.0021 min⁻¹

[O]=[Cr](=[O])([OH])[OH] [chromic acid]
pKa [3]: -0.1

O=C(O)C(F)(F)F [trifluoroacetic acid]
pKa [3]: -0.25

[O-][Cl+3]([O-])([O-])O [Perchloric, perchloric acid]
Rate constants for degradation kinetics (k554/min^-1), pH 1.5 [2, 4]: 0.3550±0.1180 min^-1 | Rate constants for degradation kinetics (k554/min^-1), pH 2.0 [2, 5]: 0.1194±0.0095 min^-1 | Rate constants for degradation kinetics (k544/min^-1) [2, 6]: 0.1194 ± 0.0095 min⁻¹ | Rate constants for degradation kinetics (k544/min^-1) [2, 7]: 0.0318 ± 0.0021 min⁻¹

Cl [Hydrochloric, hydrochloric acid]
Rate constants for degradation kinetics (k554/min^-1), pH 1.5 [2]: 0.3370±0.0990 min^-1 | Rate constants for degradation kinetics (k554/min^-1), pH 2.0 ([2]; pH 2): 0.1260±0.0173 min^-1

O=S(O)O [sulfurous acid]
pKa [3]: 1.9

O=CO [Formic, formic acid, reference compound]
Rate constants for degradation kinetics (k544/min^-1) ([2]; pH 2): 0.0263 ± 0.0035 min⁻¹
